Experimental data: ChEMBL document CHEMBL1201862, “PubChem BioAssay data set” (2004)
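Step 1: Grow cells in 96-well plates. Step 2: Expose to compound for 48 hours at 5 concentrations. Step 3: Interpolate endpoints linearly; if unreached, use highest concentration. GI50 = concentration required for 50% inhibition of growth.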 Calls of active or inactive are those of the source. No stated cut-off is given here; in the data, active = GI50 up to about 1.1 µM and inactive = higher.

Experiments:
Assay in all cases: NCI-60 cell line screen, 48 h
TK-10 = tested on: TK-10
SNB-19 = tested on: SNB-19
ACHN = tested on: ACHN
HOP-62 = tested on: HOP-62
HT-29 = tested on: HT-29
CCRF-CEM = tested on: CCRF-CEM
M14 = tested on: M14
IGROV-1 = tested on: IGROV-1
U-251 = tested on: U-251
MDA-MB-231 = tested on: MDA-MB-231
EKVX = tested on: EKVX
OVCAR-4 = tested on: OVCAR-4
SF-268 = tested on: SF-268
SK-MEL-28 = tested on: SK-MEL-28
SW-620 = tested on: SW-620
SN12C = tested on: SN12C
KM12 = tested on: KM12
SF-539 = tested on: SF-539
HCC 2998 = tested on: HCC 2998

Row | SMILES | GI50 (TK-10) | GI50 (SNB-19) | GI50 (ACHN) | GI50 (HOP-62) | GI50 (HT-29) | GI50 (CCRF-CEM) | GI50 (M14) | GI50 (IGROV-1) | GI50 (U-251) | GI50 (MDA-MB-231) | GI50 (EKVX) | GI50 (OVCAR-4) | GI50 (SF-268) | GI50 (SK-MEL-28) | GI50 (SW-620) | GI50 (SN12C) | GI50 (KM12) | GI50 (SF-539) | GI50 (HCC 2998)
1 | CCOC(=O)c1nc2ccccc2nc1Oc1ccc(C(=O)OC)cc1 | > 100 µM (inactive) | > 100 µM (inactive) | > 100 µM (inactive) | > 100 µM (inactive) | > 100 µM (inactive) | 41.8 µM (inactive) | > 100 µM (inactive) | > 100 µM (inactive) | > 100 µM (inactive) | > 100 µM (inactive) | > 100 µM (inactive) | > 100 µM (inactive) | > 100 µM (inactive) | > 100 µM (inactive) | > 100 µM (inactive) | > 100 µM (inactive) | > 100 µM (inactive) | > 100 µM (inactive) | 
2 | O=C1CN(c2cccc(Cl)c2)C(=O)CN1NCNN1CC(=O)N(c2cccc(Cl)c2)CC1=O | > 100 µM (inactive) | > 100 µM (inactive) | > 100 µM (inactive) | > 100 µM (inactive) | > 100 µM (inactive) | > 100 µM (inactive) | > 100 µM (inactive) | > 100 µM (inactive) | > 100 µM (inactive) |  | > 100 µM (inactive) | > 100 µM (inactive) | > 100 µM (inactive) | > 100 µM (inactive) | > 100 µM (inactive) | > 100 µM (inactive) | > 100 µM (inactive) | > 100 µM (inactive) | > 100 µM (inactive)
3 | COc1cc(/C=C2\N=C(c3ccccc3)N(c3nc4ccc(Sc5ccccc5)cc4[nH]3)C2=O)ccc1O | 20.7 µM (inactive) | 31.8 µM (inactive) | 26.9 µM (inactive) | 42.7 µM (inactive) | 18.4 µM (inactive) | 6.14 µM (inactive) | 15.6 µM (inactive) | 37.8 µM (inactive) | 19.4 µM (inactive) | 25.6 µM (inactive) | 31.5 µM (inactive) | 30.1 µM (inactive) | 25.5 µM (inactive) | 21.2 µM (inactive) | 21.7 µM (inactive) | 26.9 µM (inactive) | 15.2 µM (inactive) |  | 15.8 µM (inactive)
4 | CN1CC[C@]23c4c5ccc(O)c4O[C@H]2C(O)CC[C@@]3(O)[C@H]1C5 (some centres not stated) | > 100 µM (inactive) | > 100 µM (inactive) | > 100 µM (inactive) | > 100 µM (inactive) | > 100 µM (inactive) |  | > 100 µM (inactive) | > 100 µM (inactive) | > 100 µM (inactive) | > 100 µM (inactive) | > 100 µM (inactive) | > 100 µM (inactive) | > 100 µM (inactive) | > 100 µM (inactive) | > 100 µM (inactive) | > 100 µM (inactive) | > 100 µM (inactive) | > 100 µM (inactive) | 
5 | Fc1ccc(NCn2nc(COc3ccccc3Cl)n(/N=C/c3ccc(-c4ccc(Cl)cc4Cl)o3)c2=S)cc1Cl | 31.8 µM (inactive) |  | 29.5 µM (inactive) | 52.4 µM (inactive) | > 100 µM (inactive) | 25.5 µM (inactive) | 28.5 µM (inactive) | 29.2 µM (inactive) | 25.8 µM (inactive) | 44.4 µM (inactive) | > 100 µM (inactive) | 53.2 µM (inactive) | 79.1 µM (inactive) | > 100 µM (inactive) | 36.1 µM (inactive) |  | 26 µM (inactive) | 31.3 µM (inactive) | 
6 | CN(C)c1nncc2[nH]cnc12 | > 100 µM (inactive) | > 100 µM (inactive) | > 100 µM (inactive) | > 100 µM (inactive) | > 100 µM (inactive) | > 100 µM (inactive) | > 100 µM (inactive) | > 100 µM (inactive) | > 100 µM (inactive) | > 100 µM (inactive) | > 100 µM (inactive) |  | > 100 µM (inactive) | > 100 µM (inactive) | > 100 µM (inactive) | > 100 µM (inactive) | 74.8 µM (inactive) | > 100 µM (inactive) | 
7 | C[N+]12C=CC=C1C(N1CCCC1)c1scc(-c3ccc(F)cc3)c12 (configuration not stated) |  | 15.1 µM (inactive) |  | 63.7 µM (inactive) | 18.3 µM (inactive) | 1.89 µM (inactive) | 69.8 µM (inactive) | 13.1 µM (inactive) | 6.71 µM (inactive) | 42.2 µM (inactive) | 92.3 µM (inactive) |  | 32.4 µM (inactive) | 66.5 µM (inactive) | 68.2 µM (inactive) | 11.1 µM (inactive) | 23.8 µM (inactive) |  | 
8 | Cc1cnc(Cl)nc1C(C#N)c1nc2ccccc2n1C (configuration not stated) | 36 µM (inactive) | 41.6 µM (inactive) | 66.8 µM (inactive) | 55.7 µM (inactive) | 35.9 µM (inactive) |  | > 100 µM (inactive) | 33.4 µM (inactive) | 19.5 µM (inactive) | > 100 µM (inactive) | 6.31 µM (inactive) | 49.1 µM (inactive) | 29.9 µM (inactive) | 93.1 µM (inactive) | > 100 µM (inactive) | > 100 µM (inactive) | > 100 µM (inactive) | 31 µM (inactive) | 
9 | COc1ccc(OC)c(-c2nc3n(c2/C=C2/C(=O)Nc4ccccc42)CCS3)c1 | 41.2 µM (inactive) | > 100 µM (inactive) | 90.6 µM (inactive) | 58.6 µM (inactive) | 47.6 µM (inactive) | 35 µM (inactive) | 37.4 µM (inactive) | 36 µM (inactive) | 67 µM (inactive) | 25.6 µM (inactive) | > 100 µM (inactive) | 41.5 µM (inactive) | 67.5 µM (inactive) | > 100 µM (inactive) | 40.9 µM (inactive) | 65.8 µM (inactive) | 30.1 µM (inactive) | 47.9 µM (inactive) | 
10 | CCOc1c(OC)cc(C2c3cc4c(c(OCC)c3CC3COC(=O)C32)OCO4)cc1OC (configuration not stated) | 5.87 µM (inactive) | 3.65 µM (inactive) | 1.79 µM (inactive) | 1.78 µM (inactive) | 2.47 µM (inactive) | 2.67 µM (inactive) | 3.15 µM (inactive) | 2.41 µM (inactive) | 1.63 µM (inactive) | 2.17 µM (inactive) | 12.7 µM (inactive) | 8.28 µM (inactive) | 7.21 µM (inactive) | 16.6 µM (inactive) | 1.24 µM (inactive) | 2.21 µM (inactive) | 0.962 µM (active) | 1.75 µM (inactive) | 
11 | OCC1OC(Oc2cc(O)cc(/C=C\c3ccc(O)cc3)c2)C(O)C(O)C1O (configuration not stated) | > 100 µM (inactive) | > 100 µM (inactive) | > 100 µM (inactive) | > 100 µM (inactive) | > 100 µM (inactive) | > 100 µM (inactive) |  | > 100 µM (inactive) | > 100 µM (inactive) | > 100 µM (inactive) | > 100 µM (inactive) | > 100 µM (inactive) |  | > 100 µM (inactive) | > 100 µM (inactive) | > 100 µM (inactive) | > 100 µM (inactive) | > 100 µM (inactive) | 
12 | CC(=O)c1nc2ccccc2n1C(C)C(=O)c1ccccc1 (configuration not stated) | 91.8 µM (inactive) | 77.6 µM (inactive) |  | 57.1 µM (inactive) | > 100 µM (inactive) | 39.6 µM (inactive) | 42.8 µM (inactive) | 30.2 µM (inactive) | 57.3 µM (inactive) | 36.1 µM (inactive) | > 100 µM (inactive) | 47.4 µM (inactive) | 26.5 µM (inactive) | > 100 µM (inactive) | 43.7 µM (inactive) | 56.6 µM (inactive) | 58.3 µM (inactive) | > 100 µM (inactive) | 
13 | CC(CO)(CO)/N=C/c1cc(I)cc(I)c1O | 26 µM (inactive) | 20.3 µM (inactive) | 25 µM (inactive) | 11.2 µM (inactive) | 21.4 µM (inactive) | 9.98 µM (inactive) | 14.1 µM (inactive) | 9.4 µM (inactive) | 12.8 µM (inactive) | 18.7 µM (inactive) | 19.5 µM (inactive) | 8.65 µM (inactive) | 5.62 µM (inactive) | 16.6 µM (inactive) | 22 µM (inactive) | 13.3 µM (inactive) | 14.5 µM (inactive) | 14.5 µM (inactive) | 
14 | N=C(N)NS(=O)(=O)c1ccc(Nc2c3ccccc3nc3c(C(=O)NC(CO)(CO)CO)cccc23)cc1 | 47.3 µM (inactive) | 28.1 µM (inactive) | 11.1 µM (inactive) | 13.6 µM (inactive) | 21.3 µM (inactive) | 4.63 µM (inactive) | 30.6 µM (inactive) | 37.6 µM (inactive) | 12.2 µM (inactive) | 21.8 µM (inactive) | > 100 µM (inactive) | > 10 µM (inactive) | 19.5 µM (inactive) | 30.5 µM (inactive) | 17.6 µM (inactive) | 26.5 µM (inactive) | 14.9 µM (inactive) |  | 32.1 µM (inactive)
15 | C/C(=C\C(C[C@](C)(O)C(O)CCC#C[Si](C)(C)C)S(=O)(=O)c1ccccc1)CC/C=C/CO[Si](C)(C)C(C)(C)C (some centres not stated) | 22 µM (inactive) | 19.8 µM (inactive) | 16 µM (inactive) | 21.4 µM (inactive) | 3.57 µM (inactive) | 10.6 µM (inactive) | 17.9 µM (inactive) | 20.8 µM (inactive) | 13.4 µM (inactive) |  | 19.7 µM (inactive) | 13.8 µM (inactive) |  |  | 17.3 µM (inactive) | 6.24 µM (inactive) | 16.8 µM (inactive) | 20 µM (inactive) | 21 µM (inactive)
16 | Nn1c(CCCCCCCCc2nnc(COc3ccc4ccccc4c3O)n2N)nnc1COc1ccc2ccccc2c1O | 49.2 µM (inactive) | 30 µM (inactive) | 31.3 µM (inactive) |  | 25.3 µM (inactive) |  | 30.1 µM (inactive) | 4.92 µM (inactive) | 41.4 µM (inactive) | 23.2 µM (inactive) | 43.7 µM (inactive) | 34.1 µM (inactive) | 29.8 µM (inactive) | 32.4 µM (inactive) | 52.7 µM (inactive) | 39.3 µM (inactive) | 18.7 µM (inactive) |  | 25.2 µM (inactive)
